Source: patent US20080009025A1, “PROTEIN KINASE REGULATION” (priority 1999, published 2008)
Where a SMILES comes first, the peptide text is derived from it.

Assays:
Test in all cases: Surface plasmon resonance binding of PDK1 to PIF / immobilised PIFtide
PDK1 [1] = biological target: T1, PDK1 (Homo sapiens, UniProt O15530); conditions: His-tagged PDK1
T1 construct: Full length PDK1 (residues 1-556); made in house; host or cells: 293 cells
T1 sequence (O15530 52-556): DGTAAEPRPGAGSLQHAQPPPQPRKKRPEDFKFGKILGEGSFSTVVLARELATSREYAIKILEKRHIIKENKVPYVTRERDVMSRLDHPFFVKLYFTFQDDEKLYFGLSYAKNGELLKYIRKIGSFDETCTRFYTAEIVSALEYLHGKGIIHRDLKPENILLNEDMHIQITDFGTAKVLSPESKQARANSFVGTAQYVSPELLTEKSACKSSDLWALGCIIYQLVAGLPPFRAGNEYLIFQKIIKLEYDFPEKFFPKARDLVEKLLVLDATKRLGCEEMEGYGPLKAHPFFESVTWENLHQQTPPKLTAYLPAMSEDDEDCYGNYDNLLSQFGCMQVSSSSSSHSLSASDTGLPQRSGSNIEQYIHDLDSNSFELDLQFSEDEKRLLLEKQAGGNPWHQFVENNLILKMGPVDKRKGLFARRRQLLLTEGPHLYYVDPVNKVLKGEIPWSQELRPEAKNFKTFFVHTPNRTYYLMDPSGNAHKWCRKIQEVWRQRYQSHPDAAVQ
Description: (§1) It is preferred that the interaction can be detected using a surface plasmon resonance method, as described in Example 1 or 2 and in Balendran et al (1999), supra and GB9906245.7, supra. The interacting polypeptide may be immobilised on the test surface, for example it can be coupled through amino groups to a SensorChip CM5™, according to the manufacturer's instructions, or a biotinylated polypeptide can be bound to an avidin coated SensorChip SA. The protein kinase (at concentrations between, for example 0 and […], for example 2 μM) is then injected over the surface and steady state binding determined in each case. From these measurements a Kd can be determined. […] Alternatively, a Kd can be determined for a polypeptide in competition with the immobilised polypeptide. The protein kinase (for example at a concentration of 0.5 μM) is mixed with free polypeptide (for example, at concentrations between 0 and 3 μM) and the mixture injected over the immobilised polypeptides. The steady state binding is determined in each case, from which the Kd of the interaction can be determined using the […] relationship. Alternatively, the interaction may be expressed in terms of an observed response or relative observed responses, measured in terms of mass of protein bound to the surface, as described in Example 2. For example, the polypeptide may be immobilised by amino coupling to a SensorChip CM5 and each protein kinase (for example different mutated protein kinases, as discussed below) for example at a concentration of 1.0 μM, injected over the immobilised polypeptide. Alternatively, the polypeptide may be immobilised on a SA SensorChip and each protein kinase, for example at a concentration of 40 nM injected over the immobilised polypeptide. The steady state response for each protein kinase is determined, for example expressed in Response Units (RU). 1000 RU corresponds to 1 ng/mm^2 of protein bound to the surface. A response of less than 10 RU may indicate that no interaction has taken place. A response of at least 10 RU may indicate that the immobilised and injected molecules interact with each other.
(§2) FIG. 9. Effect of mutation of conserved residues in the PIF-binding pocket of PDK1 on the ability to interact with PIF. 293 cells were transiently transfected with DNA constructs expressing GST-PIF and either wild type Myc-PDK1 or the indicated mutants of PDK1. 36 h post transfection the cells were lysed and GST-PIF purified by affinity chromatography on glutathione-Sepharose beads. 2 μg of each protein was electrophoresed on a 10% SDS/polyacrylamide gel and either stained with Coomassie blue (A and E) or immunoblotted using an anti Myc antibody to detect Myc-PDK1 (B and F). To establish that the wild type PDK1 and mutant proteins were expressed at a similar level, 10 μg of total cell lysate was electrophoresed on a 10% SDS/polyacrylamide gel and immunoblotted using anti-Myc antibodies (C and G). Duplicates of each condition are shown. Similar results were obtained in 3 to 5 separate experiments. (D) Surface Plasmon Resonance measurements were carried out in a BiaCore instrument as described in the Methods to measure the interaction of wild type and mutant GST-PDK1 preparations with the 24 residue synthetic peptide whose sequence encompasses the PDK1 binding site on PIF termed PIFtide [24: Example 2]. […]
(§3) Binding was analysed directly by surface plasmon resonance in an upgraded Bia-Lite™ system. […]

PDK1 [2] = tested on: PDK1; set-up: species or system human
Description: as §1, §2, §3

PDK1 [3] = biological target: T2, PDK1 (Homo sapiens, UniProt O15530, K115A); conditions: immobilised biotinylated peptide; PDK1 K115A
T2 construct: Full length PDK1 (residues 1-556); made in house; host or cells: 293 cells
T2 sequence (O15530 1-556 K115A): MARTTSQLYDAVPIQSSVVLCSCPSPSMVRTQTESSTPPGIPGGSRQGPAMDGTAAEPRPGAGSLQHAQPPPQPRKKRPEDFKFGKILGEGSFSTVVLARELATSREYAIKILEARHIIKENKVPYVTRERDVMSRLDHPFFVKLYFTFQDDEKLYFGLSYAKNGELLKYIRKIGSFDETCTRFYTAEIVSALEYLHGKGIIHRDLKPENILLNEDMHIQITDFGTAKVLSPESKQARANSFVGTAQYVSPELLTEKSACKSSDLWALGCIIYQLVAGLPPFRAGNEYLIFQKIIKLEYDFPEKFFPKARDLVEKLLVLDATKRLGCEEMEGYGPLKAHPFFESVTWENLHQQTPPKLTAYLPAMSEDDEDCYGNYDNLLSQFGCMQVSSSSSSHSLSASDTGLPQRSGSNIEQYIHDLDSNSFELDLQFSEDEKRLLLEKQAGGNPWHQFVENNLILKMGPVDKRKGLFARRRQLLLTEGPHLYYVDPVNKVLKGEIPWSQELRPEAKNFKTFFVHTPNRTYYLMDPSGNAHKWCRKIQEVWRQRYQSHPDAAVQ
Description: as §1, §2, §3

GST-PIF: glutathione S-transferase fused to the last 77 residues of PRK2 (PIF)
estimated equilibrium dissociation constant of the association between GST-PIF and His-tagged PDK1 (PDK1 [1]): 600 nM

CC[C@H](C)[C@H](NC(=O)[C@H](Cc1ccc(O)cc1)NC(=O)[C@H](CC(=O)O)NC(=O)[C@H](Cc1ccccc1)NC(=O)[C@H](CC(=O)O)NC(=O)[C@H](CCCNC(=N)N)NC(=O)[C@H](Cc1ccccc1)NC(=O)[C@H](CCSC)NC(=O)[C@H](CCC(=O)O)NC(=O)[C@H](CCC(N)=O)NC(=O)[C@H](CCC(=O)O)NC(=O)[C@H](CCC(=O)O)NC(=O)[C@H](CCC(=O)O)NC(=O)[C@H](CO)NC(=O)[C@H](CC(C)C)NC(=O)[C@@H](NC(=O)[C@H](CCCNC(=N)N)NC(=O)[C@@H]1CCCN1C(=O)[C@H](CCC(=O)O)NC(=O)[C@@H](N)CCCNC(=N)N)[C@@H](C)CC)C(=O)N[C@@H](C)C(=O)N[C@@H](CC(=O)O)C(=O)N[C@@H](Cc1c[nH]c2ccccc12)C(=O)N[C@@H](CS)C(=O)O [PIFtide] (H-REPRILSEEEQEMFRDFDYIADWC-OH; N-terminus and C-terminus assumed)
decreased affinity of PDK1[K115A], PDK1[I119A], PDK1[Q150A] and PDK1[L155A] for PIFtide (PDK1 [2]; PDK1 PIF pocket mutants vs wild type, unpublished data): ~10 fold | interaction with L155S, L155D and L155E mutants of PDK1 (PDK1 [2]; immobilised biotinylated peptide, PDK1 mutants L155S, L155D, L155E): no detectable affinity | interaction with wild type GST-PDK1 (PDK1 [2]; immobilised biotinylated peptide, wild type GST-PDK1): high affinity interaction | interaction with K115A mutant of PDK1 (PDK1 [3]): interacted weakly
